# Reference: the supplement of paper PMC4862054
# Experiments:
# Experiment in all cases: normalised response (% of control), CellTiter-Glo; higher = more viable cells (100 = DMSO, 0 = benzethonium chloride kill control)
# Conditions in all cases: incubation time: 72 h
# BT-474 = test system: BT-474
# Summary of the method: (§1)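 CellTox Green fluorescence (485/520 nm) and, after 10 min at room temperature, CellTiter-Glo luminescence were read from breast cancer cell lines incubated 72 h in 384-well plates. Cells were seeded as 20 µl suspension onto compound at 5 concentrations in 10-fold steps over a 10,000-fold range chosen per compound. Each plate was normalised to 0.1 % DMSO (100) and a positive kill control (0). Values are normalised signals, one per concentration.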
# BT-549 = test system: BT-549
# Summary of the method: as §1
# CAL-120 = test system: CAL-120
# Summary of the method: as §1
# CAL-148 = test system: CAL-148
# Summary of the method: as §1
# CAL-51 = test system: CAL-51
# Summary of the method: as §1
# CAL-85-1 = test system: CAL-85-1
# Summary of the method: as §1
# DU-4475 = test system: DU-4475
# Summary of the method: as §1
# HCC1143 = test system: HCC1143
# Summary of the method: as §1
# HCC1599 = test system: HCC1599
# Summary of the method: as §1
# HCC1937 = test system: HCC1937
# Summary of the method: as §1
# HDQ-P1 = test system: HDQ-P1
# Summary of the method: as §1
# Hs578T = test system: Hs578T
# Summary of the method: as §1
# MCF-10A = test system: MCF-10A
# Summary of the method: as §1
# MDA-MB-231 = test system: MDA-MB-231
# Summary of the method: as §1
# MDA-MB-436 = test system: MDA-MB-436
# Summary of the method: as §1
# MDA-MB-453 = test system: MDA-MB-453
# Summary of the method: as §1
# MDA-MB-468 = test system: MDA-MB-468
# Summary of the method: as §1
# MFM-223 = test system: MFM-223
# Summary of the method: as §1
# SK-BR-3 = test system: SK-BR-3
# Summary of the method: as §1
Structure (SMILES),normalised response (BT-474),normalised response (BT-549),normalised response (CAL-120),normalised response (CAL-148),normalised response (CAL-51),normalised response (CAL-85-1),normalised response (DU-4475),normalised response (HCC1143),normalised response (HCC1599),normalised response (HCC1937),normalised response (HDQ-P1),normalised response (Hs578T),normalised response (MCF-10A),normalised response (MDA-MB-231),normalised response (MDA-MB-436),normalised response (MDA-MB-453),normalised response (MDA-MB-468),normalised response (MFM-223),normalised response (SK-BR-3)
CC[C@H](CC#N)OC(=O)N[C@@H](C)c1cccc(NC(=O)Nc2ccc(-c3cnco3)c(OC)c2)c1 [AVN944] (1 nM),89.2%,98.5%,96.7%,99.8%,112%,97%,97.9%,93.2%,90.3%,103%,99.4%,97.8%,99.1%,96.1%,91.1%,99.6%,97.2%,93.5%,95.7%
CO[C@H](C(=O)[C@@H](O)[C@@H](C)O)[C@@H]1Cc2cc3cc(O[C@H]4C[C@@H](O[C@@H]5C[C@@H](O)[C@H](O)[C@@H](C)O5)[C@H](O)[C@@H](C)O4)c(C)c(O)c3c(O)c2C(=O)[C@H]1O[C@H]1C[C@@H](O[C@@H]2C[C@@H](O)[C@@H](O[C@@H]3C[C@](C)(O)[C@H](O)[C@@H](C)O3)[C@@H](C)O2)[C@H](O)[C@@H](C)O1 [Plicamycin] (10 nM),108%,104%,101%,116%,74.9%,103%,107%,103%,117%,97.7%,96.4%,105%,114%,103%,101%,118%,109%,108%,111%
N[C@@H](Cc1ccc(N(CCCl)CCCl)cc1)C(=O)O [Melphalan] (1.25 nM),98.7%,97.8%,100%,93.2%,114%,96.5%,95.5%,98.7%,116%,103%,106%,109%,104%,100%,109%,93.3%,91.7%,95.1%,96.3%
C[C@]12C=CC(=O)C=C1CC[C@@H]1[C@@H]2C(=O)C[C@@]2(C)[C@H]1CC[C@]2(O)C(=O)CO [Prednisone] (10 nM),103%,98%,104%,108%,118%,99.9%,107%,101%,96.9%,95.8%,96.3%,96.7%,109%,98.7%,101%,118%,98.4%,104%,123%
Cn1cc(C[C@@H](N)C(=O)O)c2ccccc21 [1-methyl-D-tryptophan] (5 nM),100%,95.7%,95.1%,88.9%,94.2%,91.3%,95.8%,102%,107%,98.5%,104%,93.2%,95.2%,96.8%,107%,90.1%,98.3%,94.2%,99.8%
O=C(O)CC[C@H]1CC[C@@](c2cc(F)ccc2F)(S(=O)(=O)c2ccc(Cl)cc2)CC1 [MK-0752] (1 nM),103%,93%,102%,107%,87.3%,102%,104%,99.5%,97.5%,98.7%,95.6%,104%,113%,102%,101%,111%,98.5%,112%,102%
COc1cc2c(Oc3ccc(NC(=O)C4(C(=O)Nc5ccc(F)cc5)CC4)cc3F)ccnc2cc1OCCCN1CCOCC1 [Foretinib] (1 nM),104%,98.4%,99.7%,101%,106%,94.8%,100%,102%,94.3%,95%,97.7%,97.4%,102%,99%,99.2%,108%,99.4%,102%,97.6%
O=C(c1cc(Cc2n[nH]c(=O)c3ccccc23)ccc1F)N1CCN(C(=O)C2CC2)CC1 [Olaparib] (10 nM),97.1%,98.2%,93.2%,98.9%,110%,108%,102%,95.6%,113%,101%,96.2%,98.6%,99.5%,90.2%,91.8%,97.8%,101%,93%,100%
NC1(c2ccc(-c3nc4ccn5c(=O)[nH]nc5c4cc3-c3ccccc3)cc2)CCC1 [MK-2206] (1 nM),111%,92.9%,99.2%,112%,80.6%,95.9%,104%,103%,105%,92.6%,96.5%,96.5%,106%,103%,104%,100%,101%,109%,112%
CC(C)NC[C@@H](C(=O)N1CCN(c2ncnc3c2[C@H](C)C[C@H]3O)CC1)c1ccc(Cl)cc1 [GDC-0068] (10 nM),96.8%,98.2%,99.8%,96.8%,108%,95.6%,105%,103%,90.8%,97%,96.1%,100%,103%,110%,94.4%,91.1%,95.7%,98.8%,
